According to ChEMBL document CHEMBL1201862, “PubChem BioAssay data set” (2004):
“And” between values parts separate entries of the source, which are not always exact repeats. Equal entries are not always repeated. The source made the active and inactive calls.

Tests used:
[1] = inhibitors of firefly luciferase expression or activity, dose response, H4 neuroglioma cells, luminescence (AID 1990); assay type: functional, cell-based
[2] = Luminescence Cell-Based Dose Response HTS to Identify Inhibitors of 5'UTR Stem-Loop Driven Prion Protein mRNA Translation in H4 Neuroglioblastoma Cells. [Related pubchem assays: 1827 (Project Summary), 1813 (Primary HTS)]; assay type: functional
[3] = inhibitors of SNCA 5'UTR-driven reporter translation, confirmation, H4 neuroglioma cells, luminescence (AID 1988); assay type: functional, cell-based
[4] = inhibitors of intracellular T. cruzi replication, confirmation, NIH3T3 host cells, beta-gal luminescence (AID 2044); assay type: functional, cell-based;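 also: intracellular parasites grown in NIH/3T3 mouse fibroblasts as host cells; luminescent beta-galactosidase reporter signal from transgenic T. cruzi replicating inside host cells; inhibitors lower the luminescence signal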
Beta-lactamase [5] = target: Beta-lactamase (Pseudomonas aeruginosa, UniProt Q79MP6);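 also: biochemical dose-response test of metallo-beta-lactamase enzyme inhibition, read out by epi-absorbance; purified recombinant IMP-1 metallo-beta-lactamase with nitrocefin as substrate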
[6] = cytotoxicity toward NIH3T3 fibroblasts, dose response, counter-screen, cell-based, ATP luminescence, mouse fibroblasts (AID 2010); assay type: functional;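 also: cells exposed to compound for about 90 hours before reading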
Beta-lactamase [7] = target: Beta-lactamase (Salmonella choleraesuis (strain SC-B67), UniProt Q5J463)
[8] = target: T1, DNA dC->dU-editing enzyme APOBEC-3A (Homo sapiens, UniProt P31941); test: Dose Response confirmation of small molecule APOBEC3A DNA Deaminase Inhibitors via a fluorescence-based single-stranded DNA deaminase assay. [Related pubchem assays (depositor defined):AID493011, AID493024]; assay type: functional
T1 sequence (P31941 whole entry): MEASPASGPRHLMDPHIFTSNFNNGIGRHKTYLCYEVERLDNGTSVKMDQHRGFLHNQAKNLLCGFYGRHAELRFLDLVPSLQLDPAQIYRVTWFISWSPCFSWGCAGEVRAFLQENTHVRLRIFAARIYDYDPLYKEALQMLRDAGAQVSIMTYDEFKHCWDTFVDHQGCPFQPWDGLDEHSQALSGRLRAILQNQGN

[9] = target: FAD-linked sulfhydryl oxidase ALR (Homo sapiens, UniProt P55789); test: inhibitors of human ALR sulfhydryl oxidase, dose response, biochemical, H2O2 detection, luminescence, cherry-pick (AID 493248)
[10] = target: T2, DNA dC->dU-editing enzyme APOBEC-3G (Homo sapiens, UniProt Q9HC16); assay type: functional
T2 sequence (Q9HC16 whole entry): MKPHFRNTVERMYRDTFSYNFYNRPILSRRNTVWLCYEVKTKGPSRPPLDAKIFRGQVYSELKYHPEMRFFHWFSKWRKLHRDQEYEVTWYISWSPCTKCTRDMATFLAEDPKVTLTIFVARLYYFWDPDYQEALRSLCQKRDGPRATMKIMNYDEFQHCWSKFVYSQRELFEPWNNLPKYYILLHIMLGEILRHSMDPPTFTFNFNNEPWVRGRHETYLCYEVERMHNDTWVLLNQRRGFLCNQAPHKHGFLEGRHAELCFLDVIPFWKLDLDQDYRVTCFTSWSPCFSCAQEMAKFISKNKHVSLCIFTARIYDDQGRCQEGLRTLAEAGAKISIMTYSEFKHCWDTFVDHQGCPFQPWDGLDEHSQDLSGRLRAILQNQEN

INS1 = test: beta cell apoptosis inhibitors, cytokine rescue, dose response, luminescence, retest (AID 449756); assay type: functional, cell-based; conditions: Rattus norvegicus;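 also: cell death triggered by IL-1 beta plus TNF-alpha plus IFN-gamma mixture; protective hits raise ATP signal compared with cytokine alone wells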
[11] = target: T1, DNA dC->dU-editing enzyme APOBEC-3A; test: SAR analysis of small molecule inhibitors of APOBEC3A DNA Deaminase via a fluorescence-based single-stranded DNA deaminase assay - Set 2.; assay type: functional; conditions: read-out: IC50_Mean
[12] = target: T2, DNA dC->dU-editing enzyme APOBEC-3G; test: SAR analysis of small molecule inhibitors of APOBEC3G DNA Deaminase via a fluorescence-based single-stranded DNA deaminase assay - Set 2.; assay type: functional; conditions: read-out: IC50_Mean
[13] = target: T2, DNA dC->dU-editing enzyme APOBEC-3G; test: APOBEC3G deaminase inhibitors, SAR follow-up, biochemical, fluorescence, single-stranded DNA substrate (AID 602136); assay type: functional; conditions: read-out: IC50_Mean
[14] = target: T1, DNA dC->dU-editing enzyme APOBEC-3A; test: SAR analysis of small molecule inhibitors of APOBEC3A DNA Deaminase via a fluorescence-based single-stranded DNA deaminase assay.; assay type: functional; conditions: read-out: IC50_Mean
[15] = target: T3, Neuropeptides B/W receptor type 1 (Homo sapiens, UniProt P48145); test: GPR7 antagonist potency, late-stage follow-up, cell-based, fluorescence, dose response, set 5 (AID 588566); assay type: functional
T3 sequence (P48145 whole entry): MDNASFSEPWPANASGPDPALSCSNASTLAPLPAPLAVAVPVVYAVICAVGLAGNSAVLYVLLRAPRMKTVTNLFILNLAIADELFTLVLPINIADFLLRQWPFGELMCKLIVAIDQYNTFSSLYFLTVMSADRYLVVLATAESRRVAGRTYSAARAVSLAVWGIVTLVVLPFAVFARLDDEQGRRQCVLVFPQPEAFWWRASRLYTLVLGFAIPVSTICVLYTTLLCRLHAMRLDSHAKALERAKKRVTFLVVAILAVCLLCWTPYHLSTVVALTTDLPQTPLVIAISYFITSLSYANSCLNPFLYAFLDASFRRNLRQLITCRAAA

[16] = target: Melanin-concentrating hormone receptor 1 (Homo sapiens, UniProt Q99705); test: Late-stage fluorescence-based counterscreen for antagonists of the G-protein coupled receptor 7 (GPR7): cell-based dose response assay to identify antagonists of the melanin-concentrating hormone receptor 1 (MCHR1) Set 5.; assay type: functional
Sequence of Melanin-concentrating hormone receptor 1 (Q99705 whole entry): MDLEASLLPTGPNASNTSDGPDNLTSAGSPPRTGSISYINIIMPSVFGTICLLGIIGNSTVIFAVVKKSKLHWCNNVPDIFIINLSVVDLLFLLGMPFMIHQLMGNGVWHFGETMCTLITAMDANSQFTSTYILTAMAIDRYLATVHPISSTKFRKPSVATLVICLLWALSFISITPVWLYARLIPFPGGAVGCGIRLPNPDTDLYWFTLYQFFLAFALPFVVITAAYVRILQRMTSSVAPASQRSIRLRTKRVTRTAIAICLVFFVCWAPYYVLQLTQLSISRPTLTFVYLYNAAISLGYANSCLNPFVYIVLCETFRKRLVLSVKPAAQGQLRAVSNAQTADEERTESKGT

Cytochrome P450 2C19 = Cytochrome P450 2C19 (Homo sapiens, UniProt P33261); test: Cytochrome panel assay with activity outcomes. Panel member name: p450-cyp2c19 Compounds with AC50 equal or less than 10 uM are considered active; assay type: functional; conditions: read-out: AC50
[17] = target: T4, Glycogen synthase kinase-3 beta (Homo sapiens, UniProt P49841); test: GSK3beta kinase inhibitors, dose response, biochemical, microfluidics, dry powder samples, set 2 (AID 623989); assay type: functional
T4 sequence (P49841 whole entry): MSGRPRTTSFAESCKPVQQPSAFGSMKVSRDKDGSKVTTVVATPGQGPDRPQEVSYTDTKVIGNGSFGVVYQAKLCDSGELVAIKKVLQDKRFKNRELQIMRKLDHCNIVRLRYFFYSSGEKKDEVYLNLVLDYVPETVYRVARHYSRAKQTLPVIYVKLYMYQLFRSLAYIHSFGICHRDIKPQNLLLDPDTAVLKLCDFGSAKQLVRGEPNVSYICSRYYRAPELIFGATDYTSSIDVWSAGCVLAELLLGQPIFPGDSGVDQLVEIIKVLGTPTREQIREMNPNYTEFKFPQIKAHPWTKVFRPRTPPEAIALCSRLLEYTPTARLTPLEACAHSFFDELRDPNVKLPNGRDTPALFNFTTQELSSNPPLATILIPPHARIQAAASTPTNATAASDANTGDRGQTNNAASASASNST

[18] = target: T5, Glycogen synthase kinase-3 alpha (Homo sapiens, UniProt P49840); test: human GSK3 alpha kinase inhibition, dose response, selectivity assay for GSK3beta inhibitor project, biochemical, microfluidics, dry powder samples, set 2 (AID 623978); assay type: functional
T5 sequence (P49840 whole entry): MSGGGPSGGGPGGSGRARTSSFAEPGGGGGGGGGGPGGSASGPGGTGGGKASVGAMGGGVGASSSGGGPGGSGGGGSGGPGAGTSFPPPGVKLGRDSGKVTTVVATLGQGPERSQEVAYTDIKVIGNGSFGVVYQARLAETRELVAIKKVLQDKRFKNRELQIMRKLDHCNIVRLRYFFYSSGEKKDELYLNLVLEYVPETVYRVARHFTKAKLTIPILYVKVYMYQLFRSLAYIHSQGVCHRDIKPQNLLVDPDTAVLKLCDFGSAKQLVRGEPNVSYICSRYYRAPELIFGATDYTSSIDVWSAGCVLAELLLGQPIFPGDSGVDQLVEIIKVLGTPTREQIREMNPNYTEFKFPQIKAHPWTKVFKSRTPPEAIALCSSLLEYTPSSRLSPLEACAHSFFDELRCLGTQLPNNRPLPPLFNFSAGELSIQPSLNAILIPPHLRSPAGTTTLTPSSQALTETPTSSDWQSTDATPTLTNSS

Cytochrome P450 2C9 = Cytochrome P450 2C9 (Homo sapiens, UniProt P11712)
[19] = target: Ribosomal protein S6 kinase alpha-3 (Homo sapiens, UniProt P51812); assay type: functional;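 also: measured within a kinome-wide profiling panel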
[20] = target: Dual specificity protein kinase CLK2 (Homo sapiens, UniProt P49760); assay type: functional
[21] = target: ALK tyrosine kinase receptor (Homo sapiens, UniProt Q9UM73); assay type: functional;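 also: ALK tested as one member of a kinase panel screen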
[22] = target: Serine/threonine-protein kinase D3 (Homo sapiens, UniProt O94806); assay type: functional;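 also: determined within a kinase panel screen, with PRKCN as the panel member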
[23] = target: Tyrosine-protein kinase Lck (Homo sapiens, UniProt P06239); assay type: functional;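 also: lck was assayed as one member of a kinase panel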
[24] = target: Death-associated protein kinase 3 (Homo sapiens, UniProt O43293); assay type: functional;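 also: measured as one member of a kinome-wide profiling panel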
[25] = target: Mitogen-activated protein kinase 8 (Homo sapiens, UniProt P45983); assay type: functional;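 also: value comes from one member of a kinome-wide kinase profiling panel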
[26] = target: Serine/threonine-protein kinase pim-1 (Homo sapiens, UniProt P11309); assay type: functional
Sequence of Serine/threonine-protein kinase pim-1 (P11309 whole entry): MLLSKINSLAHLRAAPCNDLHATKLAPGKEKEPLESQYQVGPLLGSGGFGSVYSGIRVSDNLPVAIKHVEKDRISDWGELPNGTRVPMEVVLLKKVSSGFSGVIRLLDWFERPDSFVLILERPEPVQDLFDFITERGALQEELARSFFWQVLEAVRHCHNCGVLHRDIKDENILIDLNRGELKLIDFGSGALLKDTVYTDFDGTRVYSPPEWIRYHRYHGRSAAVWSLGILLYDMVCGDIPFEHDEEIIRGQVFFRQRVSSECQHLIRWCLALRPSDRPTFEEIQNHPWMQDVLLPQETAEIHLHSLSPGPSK

[27] = target: Tyrosine-protein kinase BTK (Homo sapiens, UniProt Q06187); assay type: functional
[28] = target: Mast/stem cell growth factor receptor Kit (Homo sapiens, UniProt P10721); assay type: functional;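 also: KIT entry within a kinase panel assay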
[29] = target: Fibroblast growth factor receptor 1 (Homo sapiens, UniProt P11362); assay type: functional
[30] = target: Casein kinase I isoform alpha (Homo sapiens, UniProt P48729); assay type: functional
[31] = target: Tyrosine-protein kinase JAK3 (Homo sapiens, UniProt P52333); assay type: functional
[32] = target: Mitogen-activated protein kinase 9 (Homo sapiens, UniProt P45984); assay type: functional;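 also: value from a kinome panel profiling assay, MAPK9 panel entry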
[33] = target: Serine/threonine-protein kinase N2 (Homo sapiens, UniProt Q16513); assay type: functional
[34] = target: Serine/threonine-protein kinase TAO1 (Homo sapiens, UniProt Q7L7X3); assay type: functional
[35] = target: T5, Glycogen synthase kinase-3 alpha; assay type: functional
Activated CDC42 kinase 1 = Activated CDC42 kinase 1 (Homo sapiens, UniProt Q07912); test: Navigating the Kinome. Panel member name: ACK1; assay type: functional
[36] = target: Tyrosine-protein kinase ABL1 (Homo sapiens, UniProt P00519); assay type: functional
[37] = target: G protein-coupled receptor kinase 5 (Homo sapiens, UniProt P34947); test: Navigating the Kinome. Panel member name: GPRK5; assay type: functional
Focal adhesion kinase 1 = Focal adhesion kinase 1 (Homo sapiens, UniProt Q05397); assay type: functional;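 also: measured as one member of a kinome panel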
Sequence of Focal adhesion kinase 1 (Q05397 whole entry): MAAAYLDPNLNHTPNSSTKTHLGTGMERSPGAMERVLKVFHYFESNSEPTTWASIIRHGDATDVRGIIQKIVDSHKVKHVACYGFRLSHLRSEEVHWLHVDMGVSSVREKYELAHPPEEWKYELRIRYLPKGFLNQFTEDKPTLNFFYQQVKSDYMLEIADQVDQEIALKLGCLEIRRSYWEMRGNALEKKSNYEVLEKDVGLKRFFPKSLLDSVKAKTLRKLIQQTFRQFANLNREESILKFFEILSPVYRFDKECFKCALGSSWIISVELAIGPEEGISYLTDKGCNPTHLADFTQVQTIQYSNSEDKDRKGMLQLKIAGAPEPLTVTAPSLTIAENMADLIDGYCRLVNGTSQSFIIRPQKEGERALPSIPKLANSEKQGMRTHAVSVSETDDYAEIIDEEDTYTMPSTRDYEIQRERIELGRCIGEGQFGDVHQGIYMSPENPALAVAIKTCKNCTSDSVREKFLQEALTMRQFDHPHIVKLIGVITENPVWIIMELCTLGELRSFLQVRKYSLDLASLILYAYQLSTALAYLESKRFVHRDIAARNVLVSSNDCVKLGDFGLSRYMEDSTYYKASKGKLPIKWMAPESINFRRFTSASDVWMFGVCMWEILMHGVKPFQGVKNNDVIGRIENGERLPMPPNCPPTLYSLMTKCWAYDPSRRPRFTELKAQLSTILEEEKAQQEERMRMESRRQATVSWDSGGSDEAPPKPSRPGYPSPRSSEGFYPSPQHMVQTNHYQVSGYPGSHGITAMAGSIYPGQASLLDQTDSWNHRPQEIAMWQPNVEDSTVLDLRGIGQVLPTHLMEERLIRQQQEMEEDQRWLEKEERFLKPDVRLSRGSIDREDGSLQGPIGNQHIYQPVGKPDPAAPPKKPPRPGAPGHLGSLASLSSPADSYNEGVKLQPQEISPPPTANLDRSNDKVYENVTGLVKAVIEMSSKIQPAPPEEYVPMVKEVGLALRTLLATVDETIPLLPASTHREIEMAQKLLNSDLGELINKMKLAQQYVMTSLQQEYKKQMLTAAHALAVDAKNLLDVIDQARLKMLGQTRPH

[38] = target: Mitogen-activated protein kinase kinase kinase kinase 5 (Homo sapiens, UniProt Q9Y4K4); assay type: functional;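 also: measured as one member of a kinome-spanning kinase panel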
[39] = target: Tyrosine-protein kinase Fyn (Homo sapiens, UniProt P06241); assay type: functional
[40] = target: Cyclin-dependent kinase 8 (Homo sapiens, UniProt P49336); test: Navigating the Kinome. Panel member name: CDK8; assay type: functional
[41] = target: Vascular endothelial growth factor receptor 1 (Homo sapiens, UniProt P17948); assay type: functional;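 also: measured within a kinome-wide profiling panel, FLT1 as the panel member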
[42] = target: T4, Glycogen synthase kinase-3 beta; assay type: functional
[43] = target: BDNF/NT-3 growth factors receptor (Homo sapiens, UniProt Q16620); assay type: functional;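 also: NTRK2 measured as one member of a broad kinome-wide kinase profiling panel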
[44] = target: Mitogen-activated protein kinase kinase kinase kinase 4 (Homo sapiens, UniProt O95819); assay type: functional
Sequence of Mitogen-activated protein kinase kinase kinase kinase 4 (O95819 whole entry): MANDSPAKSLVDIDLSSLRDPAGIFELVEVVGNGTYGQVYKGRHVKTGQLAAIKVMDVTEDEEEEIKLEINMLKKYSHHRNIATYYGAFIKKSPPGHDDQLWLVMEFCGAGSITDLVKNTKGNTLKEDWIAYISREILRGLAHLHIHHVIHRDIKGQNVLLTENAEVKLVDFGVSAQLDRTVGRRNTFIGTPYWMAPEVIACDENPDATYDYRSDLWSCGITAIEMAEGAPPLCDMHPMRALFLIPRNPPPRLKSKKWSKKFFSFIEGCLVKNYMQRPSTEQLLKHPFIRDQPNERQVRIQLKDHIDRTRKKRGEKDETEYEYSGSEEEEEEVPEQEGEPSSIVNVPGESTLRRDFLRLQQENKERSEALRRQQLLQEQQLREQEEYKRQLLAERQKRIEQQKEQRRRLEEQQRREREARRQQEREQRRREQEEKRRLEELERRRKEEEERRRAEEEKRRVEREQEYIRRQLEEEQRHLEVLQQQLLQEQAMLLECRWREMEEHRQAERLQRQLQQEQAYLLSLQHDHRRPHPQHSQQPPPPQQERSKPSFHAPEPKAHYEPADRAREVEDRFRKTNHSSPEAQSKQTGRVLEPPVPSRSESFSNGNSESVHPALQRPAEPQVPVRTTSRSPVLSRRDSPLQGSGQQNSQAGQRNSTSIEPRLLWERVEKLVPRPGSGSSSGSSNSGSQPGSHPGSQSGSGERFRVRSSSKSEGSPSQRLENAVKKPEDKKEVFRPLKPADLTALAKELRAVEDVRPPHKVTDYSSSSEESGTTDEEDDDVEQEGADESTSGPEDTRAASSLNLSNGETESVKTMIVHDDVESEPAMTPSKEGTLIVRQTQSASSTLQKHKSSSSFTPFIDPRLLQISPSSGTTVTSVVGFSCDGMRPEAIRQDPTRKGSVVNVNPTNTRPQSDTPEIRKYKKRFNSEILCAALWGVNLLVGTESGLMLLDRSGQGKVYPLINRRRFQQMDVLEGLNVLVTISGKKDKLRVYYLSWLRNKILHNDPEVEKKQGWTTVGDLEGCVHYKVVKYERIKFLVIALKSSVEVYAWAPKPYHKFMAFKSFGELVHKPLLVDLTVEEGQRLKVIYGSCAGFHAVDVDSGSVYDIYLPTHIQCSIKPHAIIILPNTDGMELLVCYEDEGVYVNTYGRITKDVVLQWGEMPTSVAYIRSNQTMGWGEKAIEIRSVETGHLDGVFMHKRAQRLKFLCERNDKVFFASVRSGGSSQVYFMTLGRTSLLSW

[45] = target: Macrophage-stimulating protein receptor (Homo sapiens, UniProt Q04912); test: Navigating the Kinome. Panel member name: MST1R; assay type: functional
[46] = target: Inhibitor of nuclear factor kappa-B kinase subunit epsilon (Homo sapiens, UniProt Q14164); test: Navigating the Kinome. Panel member name: IKBKE; assay type: functional
[47] = target: Calcium/calmodulin-dependent protein kinase type II subunit alpha (Homo sapiens, UniProt Q9UQM7); test: Navigating the Kinome. Panel member name: CAMK2A; assay type: functional
[48] = target: Mitogen-activated protein kinase 14 (Homo sapiens, UniProt Q16539); assay type: functional;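 also: part of a kinome-wide panel, MAPK14 entry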
Sequence of Mitogen-activated protein kinase 14 (Q16539 whole entry): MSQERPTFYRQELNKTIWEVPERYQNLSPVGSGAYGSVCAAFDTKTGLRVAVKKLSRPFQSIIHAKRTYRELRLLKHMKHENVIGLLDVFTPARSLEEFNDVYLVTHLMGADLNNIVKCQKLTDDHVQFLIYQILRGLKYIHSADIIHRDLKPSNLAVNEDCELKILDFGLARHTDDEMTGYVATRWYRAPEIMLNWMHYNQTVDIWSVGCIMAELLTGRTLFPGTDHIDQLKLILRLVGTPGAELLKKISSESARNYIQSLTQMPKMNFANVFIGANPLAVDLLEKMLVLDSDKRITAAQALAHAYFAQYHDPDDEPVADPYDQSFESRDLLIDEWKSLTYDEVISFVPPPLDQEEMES

[49] = target: Cell division cycle 7-related protein kinase (Homo sapiens, UniProt O00311); assay type: functional;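 also: value obtained from a kinome-wide kinase panel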
[50] = target: Homeodomain-interacting protein kinase 2 (Homo sapiens, UniProt Q9H2X6); assay type: functional;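 also: measured within a kinome-wide kinase profiling panel, HIPK2 being one panel member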
[51] = target: Interleukin-1 receptor-associated kinase 4 (Homo sapiens, UniProt Q9NWZ3); assay type: functional
[52] = target: cAMP-dependent protein kinase catalytic subunit alpha (Homo sapiens, UniProt P17612); assay type: functional
[53] = target: Dual specificity protein kinase CLK4 (Homo sapiens, UniProt Q9HAZ1); assay type: functional

Q: For `Cc1ccc2[nH]cc(/C=C/c3cc[n+](C)cc3)c2c1`, which EC50 [1] is on record?
A: 9.85 µM (active)

Q: What about the EC50 [2] of the same compound?
A: 13.6 µM (active)

Q: What about the EC50 [3] of the same compound?
A: 12.2 µM (active)

Q: And the EC50 [4]?
A: 1.43 µM (active)

Q: What about the IC50 (Beta-lactamase [5]) of the same compound?
A: > 59.6 µM (inactive)

Q: What about the EC50 [6] of the same compound?
A: > 60 µM (not active)

Q: And the IC50 (Beta-lactamase [7])?
A: 49.2 µM (inactive)

Q: And the IC50 [8]?
A: 3.49 µM (active)

Q: And the AC50 [9]?
A: 1.49 µM (active)

Q: What about the IC50 [10] of the same compound?
A: > 100 µM (inactive)

Q: And the AC50 (INS1)?
A: 4.88 µM (active)

Q: What about the IC50 [11] of the same compound?
A: > 99 µM (inactive)

Q: What about the IC50 [12] of the same compound?
A: > 99 µM (inactive)

Q: What about the IC50 [13] of the same compound?
A: > 99 µM (inactive)

Q: And the IC50 [14]?
A: > 99 µM (inactive)

Q: What does the source list for `CCOc1c(F)cc(Oc2c(Cl)cnn(Cc3cccc4ccccc34)c2=O)cc1F`?
A: IC50 [15]: 2.37 µM (active); IC50 [16]: 9.19 µM (active)

Q: With `COC(=O)C(C)Sc1ccc2nnc(-c3ccc(F)cc3)n2n1` (stereo unspecified) as the compound, how does the AC50 (Cytochrome P450 2C19) read?
A: 39.8 µM (inconclusive)

Q: What about the AC50 [17] of the same compound?
A: 1.24 µM (active)

Q: What about the AC50 [18] of the same compound?
A: 5.24 µM (active)

Q: And the AC50 (Cytochrome P450 2C9)?
A: 3.55 µM (inconclusive)

Q: What does the source list for `CC(C)C(CO)NC(=O)c1cccc(-n2nc(C(C)(C)C)cc2NC(=O)Nc2cccc3ccccc23)c1` (stereo unspecified)?
A: Ki [19]: > 3.98 µM (inactive); Ki [20]: > 3.98 µM (inactive); Ki [21]: > 6.31 µM (inactive); Ki [22]: > 3.98 µM (inactive); Ki [23]: > 6.31 µM (inactive); Ki [24]: > 5.01 µM (inactive); Ki [25]: > 5.01 µM (inactive); Ki [26]: > 6.31 µM (inactive); Ki [27]: > 6.31 µM (inactive); Ki [28]: > 3.98 µM (inactive); Ki [29]: > 3.98 µM (inactive); Ki [30]: > 3.98 µM (inactive); Ki [31]: > 5.01 µM (inactive); Ki [32]: 0.316 µM (active); Ki [33]: 0.398 µM (active); Ki [34]: > 6.31 µM (inactive); Ki [35]: > 3.98 µM (inactive); Ki (Activated CDC42 kinase 1): > 3.98 µM (inactive); Ki [36]: > 3.98 µM (inactive); Ki [37]: > 3.98 µM (inactive); Ki (Focal adhesion kinase 1): > 6.31 µM (inactive) and > 5.01 µM (inactive); Ki [38]: > 3.98 µM (inactive); Ki [39]: > 6.31 µM (inactive); Ki [40]: 2.51 µM (active); Ki [41]: > 3.98 µM (inactive); Ki [42]: > 3.98 µM (inactive); Ki [43]: > 3.98 µM (inactive); Ki [44]: > 5.01 µM (inactive); Ki [45]: > 3.98 µM (inactive); Ki [46]: > 3.16 µM (inactive); Ki [47]: > 7.94 µM (inactive); Ki [48]: 398 nM (active) and 501 nM (active)

Q: Which Ki [26] does the source give for `Cc1cccc(CNc2cc(-c3c[nH]c4ncccc34)cc(Cl)n2)c1C` here?
A: 0.501 µM (active)

Q: What about the Ki [49] of the same compound?
A: 0.00126 µM (active)

Q: What about the Ki [50] of the same compound?
A: 0.398 µM (active)

Q: And the Ki [51]?
A: > 10 µM (inactive)

Q: What about the Ki [42] of the same compound?
A: 0.0251 µM (active)

Q: What about the Ki [52] of the same compound?
A: 0.158 µM (active)

Q: What about the Ki [53] of the same compound?
A: 0.00501 µM (active)

Q: And the Ki [44]?
A: 0.00398 µM (active)
